Tested on: MV-4-11 cells
Experiment: Gene expression microarray analysis (Affymetrix PrimeView) and GSEA
Type: cell-based, human
Design: RFU PODN (11730768_x_at) / Fold change /veh PODN (11730768_x_at) / RFU LINC00158 (11744669_a_at) / Fold change /veh LINC00158 (11744669_a_at) / RFU DUSP10 (11751237_a_at) / Fold change /veh DUSP10 (11751237_a_at) / RFU ID3 (11757404_x_at) / Fold change /veh ID3 (11757404_x_at) / RFU PLEKHG5 (11737974_s_at) / Fold change /veh PLEKHG5 (11737974_s_at) / RFU LRRC4B (11730491_at) / Fold change /veh LRRC4B (11730491_at) / RFU GIMAP4 (11747438_a_at) / Fold change /veh GIMAP4 (11747438_a_at) / RFU KRT8 (11758183_x_at) / Fold change /veh KRT8 (11758183_x_at) / RFU CNN1 (11734310_a_at) / Fold change /veh CNN1 (11734310_a_at) / RFU VPS37D (11726825_at) / Fold change /veh VPS37D (11726825_at) / RFU C10orf10 (11716522_x_at) / Fold change /veh C10orf10 (11716522_x_at) / RFU KIR2DL2 /// KIR2DL4 /// KIR2DL5A /// KIR2DL5B /// KIR2DS1 /// KIR2DS2 /// KIR2DS3 /// KIR2DS4 /// KIR3DL3 /// KIR3DL3 /// KIR3DS1 (11738374_at) / Fold change /veh KIR2DL2 /// KIR2DL4 /// KIR2DL5A /// KIR2DL5B /// KIR2DS1 /// KIR2DS2 /// KIR2DS3 /// KIR2DS4 /// KIR3DL3 /// KIR3DL3 /// KIR3DS1 (11738374_at) / RFU C1QL1 (11718748_at) / Fold change /veh C1QL1 (11718748_at) / RFU TMPRSS4 (11747572_a_at) / Fold change /veh TMPRSS4 (11747572_a_at) / RFU HAMP (11756126_x_at) / Fold change /veh HAMP (11756126_x_at) / RFU RNFT2 (11725882_a_at) / Fold change /veh RNFT2 (11725882_a_at) / RFU NR4A2 (11747474_a_at) / Fold change /veh NR4A2 (11747474_a_at) / RFU ABCC12 (11746883_a_at) / Fold change /veh ABCC12 (11746883_a_at) / RFU TMEM136 (11760407_x_at) / Fold change /veh TMEM136 (11760407_x_at) / RFU CLDN22 /// WWC2 (11732394_at) / Fold change /veh CLDN22 /// WWC2 (11732394_at) / RFU HLA-DPB1 (11760878_x_at) / Fold change /veh HLA-DPB1 (11760878_x_at) / RFU SPINT1 (11716480_a_at) / Fold change /veh SPINT1 (11716480_a_at) / RFU GAP43 (11754022_s_at) / Fold change /veh GAP43 (11754022_s_at) / RFU A4GNT (11735810_at) / Fold change /veh A4GNT (11735810_at) / RFU PRB3 (11715151_x_at) / Fold change /veh PRB3 (11715151_x_at) / RFU TUBB4B (11761932_at) / Fold change /veh TUBB4B (11761932_at) / RFU CAPN14 (11732068_a_at) / Fold change /veh CAPN14 (11732068_a_at) / RFU TMCC2 (11721928_a_at) / Fold change /veh TMCC2 (11721928_a_at) / RFU IRGQ (11745062_a_at) / Fold change /veh IRGQ (11745062_a_at) / RFU FAM174B (11720279_a_at) / Fold change /veh FAM174B (11720279_a_at) / RFU TMPRSS4 (11748680_a_at) / Fold change /veh TMPRSS4 (11748680_a_at) / RFU FAM212B (11763350_a_at) / Fold change /veh FAM212B (11763350_a_at) / RFU PLEKHG5 (11743358_a_at) / Fold change /veh PLEKHG5 (11743358_a_at) / RFU ZSCAN30 (11745921_a_at) / Fold change /veh ZSCAN30 (11745921_a_at) / RFU CMKLR1 (11741424_a_at) / Fold change /veh CMKLR1 (11741424_a_at) / RFU LOC101060620 /// MAPK8IP1 (11723275_at) / Fold change /veh LOC101060620 /// MAPK8IP1 (11723275_at) / RFU SPTSSB (11747773_x_at) / Fold change /veh SPTSSB (11747773_x_at) / RFU PRSS12 (11739890_at) / Fold change /veh PRSS12 (11739890_at) / RFU BIN1 (11741810_x_at) / Fold change /veh BIN1 (11741810_x_at) / RFU WNT11 (11732464_a_at) / Fold change /veh WNT11 (11732464_a_at) / RFU C10orf10 (11716521_a_at) / Fold change /veh C10orf10 (11716521_a_at) / RFU C5orf56 (11738089_at) / Fold change /veh C5orf56 (11738089_at) / RFU CYB561 (11721691_x_at) / Fold change /veh CYB561 (11721691_x_at) / RFU ANKRD19P (11752326_a_at) / Fold change /veh ANKRD19P (11752326_a_at) / RFU OR2T12 /// OR2T33 /// OR2T8 (11738714_s_at) / Fold change /veh OR2T12 /// OR2T33 /// OR2T8 (11738714_s_at) / RFU VCAN (11748164_a_at) / Fold change /veh VCAN (11748164_a_at) / RFU JSRP1 (11732532_at) / Fold change /veh JSRP1 (11732532_at) / RFU KRTAP10-11 (11738290_x_at) / Fold change /veh KRTAP10-11 (11738290_x_at) / RFU MYO3A (11730013_a_at) / Fold change /veh MYO3A (11730013_a_at) / RFU EBF3 (11725865_a_at) / Fold change /veh EBF3 (11725865_a_at) / RFU CAMK2N1 (11719241_x_at) / Fold change /veh CAMK2N1 (11719241_x_at) / RFU C5orf56 (11738088_a_at) / Fold change /veh C5orf56 (11738088_a_at) / RFU OLFML3 (11715873_a_at) / Fold change /veh OLFML3 (11715873_a_at) / RFU LOC100653217 /// NTM (11731650_a_at) / Fold change /veh LOC100653217 /// NTM (11731650_a_at) / RFU MAPK11 (11762145_a_at) / Fold change /veh MAPK11 (11762145_a_at) / RFU FIZ1 (11724087_x_at) / Fold change /veh FIZ1 (11724087_x_at) / RFU OASL (11726364_x_at) / Fold change /veh OASL (11726364_x_at) / RFU SOX15 (11748057_x_at) / Fold change /veh SOX15 (11748057_x_at) / RFU CD79A (11719716_a_at) / Fold change /veh CD79A (11719716_a_at) / RFU HIST1H1D (11736915_at) / Fold change /veh HIST1H1D (11736915_at) / RFU CASKIN2 (11723855_a_at) / Fold change /veh CASKIN2 (11723855_a_at) / RFU LOC730098 (11760151_x_at) / Fold change /veh LOC730098 (11760151_x_at) / RFU OR4N2 (11742367_at) / Fold change /veh OR4N2 (11742367_at) / RFU PRRT2 (11749266_a_at) / Fold change /veh PRRT2 (11749266_a_at) / RFU SNX32 (11753110_a_at) / Fold change /veh SNX32 (11753110_a_at) / RFU CDHR5 (11726645_a_at) / Fold change /veh CDHR5 (11726645_a_at) / RFU RCAN1 (11760418_a_at) / Fold change /veh RCAN1 (11760418_a_at) / RFU FAM167A (11723789_a_at) / Fold change /veh FAM167A (11723789_a_at) / RFU FAM26E (11764081_at) / Fold change /veh FAM26E (11764081_at) / RFU ISYNA1 (11749810_s_at) / Fold change /veh ISYNA1 (11749810_s_at) / RFU ACY1 (11761880_at) / Fold change /veh ACY1 (11761880_at) / RFU 11764098_at / Fold change /veh 11764098_at / RFU SAMD14 (11745864_x_at) / Fold change /veh SAMD14 (11745864_x_at) / RFU NPB (11741838_a_at) / Fold change /veh NPB (11741838_a_at) / RFU TMPRSS6 (11731388_a_at) / Fold change /veh TMPRSS6 (11731388_a_at) / RFU KRTAP10-2 (11738614_at) / Fold change /veh KRTAP10-2 (11738614_at) / RFU ARHGAP8 /// PRR5-ARHGAP8 (11727945_x_at) / Fold change /veh ARHGAP8 /// PRR5-ARHGAP8 (11727945_x_at) / RFU KRTAP5-7 /// NADSYN1 (11734609_at) / Fold change /veh KRTAP5-7 /// NADSYN1 (11734609_at) / RFU RASL12 (11751679_a_at) / Fold change /veh RASL12 (11751679_a_at) / RFU CDKN2B (11736163_a_at) / Fold change /veh CDKN2B (11736163_a_at) / RFU PRF1 (11729649_at) / Fold change /veh PRF1 (11729649_at) / RFU, ZNF638 /// ZNF638-IT1 / Fold change vs veh, ZNF638 /// ZNF638-IT1 / RFU, PANK3 / Fold change vs veh, PANK3 / RFU, SH3YL1 / Fold change vs veh, SH3YL1 / RFU, ZEB2 / Fold change vs veh, ZEB2 / RFU, NRIP1 / Fold change vs veh, NRIP1 / RFU, PTTG1IP / Fold change vs veh, PTTG1IP / RFU, CAPN2 / Fold change vs veh, CAPN2 / RFU, MED14 / Fold change vs veh, MED14 / RFU, SNORA58 / Fold change vs veh, SNORA58 / RFU, C1orf63 / Fold change vs veh, C1orf63 / RFU, LRRFIP1 / Fold change vs veh, LRRFIP1 / RFU, NDUFAF7 / Fold change vs veh, NDUFAF7 / RFU, SLC12A2 / Fold change vs veh, SLC12A2 / RFU, IBTK / Fold change vs veh, IBTK / RFU, ESF1 / Fold change vs veh, ESF1 / Fold change vs veh, TMEM50B / RFU, TAOK1 / Fold change vs veh, TAOK1 / RFU, ACBD3 / Fold change vs veh, ACBD3 / RFU, TMA16 / Fold change vs veh, TMA16 / RFU, RWDD3 / Fold change vs veh, RWDD3 / RFU, BCAT1 / Fold change vs veh, BCAT1 / RFU, EDEM3 / Fold change vs veh, EDEM3 / RFU, TMEM33 / Fold change vs veh, TMEM33 / RFU, WDR75 / Fold change vs veh, WDR75 / RFU, AHCTF1 / Fold change vs veh, AHCTF1 / RFU, TFRC / Fold change vs veh, TFRC / RFU, ZDHHC17 / Fold change vs veh, ZDHHC17 / RFU, NOM1 / Fold change vs veh, NOM1 / RFU, ARL8B / Fold change vs veh, ARL8B / RFU, ZBTB11 / Fold change vs veh, ZBTB11 / RFU, TAMM41 / Fold change vs veh, TAMM41 / RFU, KIAA1704 /// LOC100996395 / Fold change vs veh, KIAA1704 /// LOC100996395 / RFU, ING1 / Fold change vs veh, ING1 / RFU, TRMT61B / Fold change vs veh, TRMT61B / RFU, FUBP3 / Fold change vs veh, FUBP3 / RFU, TP53 / Fold change vs veh, TP53 / RFU, TNKS2 / Fold change vs veh, TNKS2 / RFU, ZFP14 / Fold change vs veh, ZFP14 / RFU, ACTR2 / Fold change vs veh, ACTR2 / RFU, PPP3R1 / Fold change vs veh, PPP3R1 / RFU, PIK3R1 / Fold change vs veh, PIK3R1 / RFU, HNRNPA1 / Fold change vs veh, HNRNPA1 / RFU, RNF170 / Fold change vs veh, RNF170 / RFU, ZNF28 / Fold change vs veh, ZNF28 / RFU, RNGTT / Fold change vs veh, RNGTT / RFU, OGT / Fold change vs veh, OGT / RFU, BRD1 / Fold change vs veh, BRD1 / RFU, MARS / Fold change vs veh, MARS / RFU, ZNF655 / Fold change vs veh, ZNF655 / RFU, FAHD1 / Fold change vs veh, FAHD1 / RFU, BDP1 / Fold change vs veh, BDP1 / RFU, LRRCC1 / Fold change vs veh, LRRCC1 / RFU, ARID1A / Fold change vs veh, ARID1A / RFU, ZNF146 / Fold change vs veh, ZNF146 / RFU, ZNF330 / Fold change vs veh, ZNF330 / RFU, GPN3 / Fold change vs veh, GPN3 / RFU, C9orf123 / Fold change vs veh, C9orf123 / RFU, N4BP2L2 / Fold change vs veh, N4BP2L2 / RFU, ARFIP1 / Fold change vs veh, ARFIP1 / RFU, FAM179B / Fold change vs veh, FAM179B / RFU, BCL10 / Fold change vs veh, BCL10 / RFU, UHRF1BP1L / Fold change vs veh, UHRF1BP1L / RFU, BET1 / Fold change vs veh, BET1 / RFU, CNOT2 / Fold change vs veh, CNOT2 / RFU, ZNF268 / Fold change vs veh, ZNF268 / Fold change vs veh, ZNF507 / RFU, DGCR2 / Fold change vs veh, DGCR2 / RFU, WDSUB1 / Fold change vs veh, WDSUB1 / Fold change vs veh, HSP90B1 /// MIR3652 / RFU, ADSS / Fold change vs veh, ADSS / RFU, GK / Fold change vs veh, GK / RFU, ZNF148 / Fold change vs veh, ZNF148 / RFU, TAF9 / Fold change vs veh, TAF9 / RFU, SLC1A5 / Fold change vs veh, SLC1A5 / RFU, SLMO2 / Fold change vs veh, SLMO2 / RFU, ABCC4 / Fold change vs veh, ABCC4 / RFU, LOC101060439 /// RAP1B / Fold change vs veh, LOC101060439 /// RAP1B / RFU, RFX7 / Fold change vs veh, RFX7 / RFU, GTPBP10 / Fold change vs veh, GTPBP10 / RFU, CNEP1R1 / Fold change vs veh, CNEP1R1 / RFU, BIVM-ERCC5 /// ERCC5 / Fold change vs veh, BIVM-ERCC5 /// ERCC5 / RFU, ILF3 / Fold change vs veh, ILF3 / RFU 11762660_at / Fold change /veh 11762660_at / RFU VCAN (11757783_s_at) / Fold change /veh VCAN (11757783_s_at) / RFU DDX43 (11728927_at) / Fold change /veh DDX43 (11728927_at) / RFU KRT8 (11758188_x_at) / Fold change /veh KRT8 (11758188_x_at) / RFU NKD1 (11759106_at) / Fold change /veh NKD1 (11759106_at) / RFU SRD5A1 (11742802_a_at) / Fold change /veh SRD5A1 (11742802_a_at) / RFU TPSAB1 /// TPSB2 (11721975_s_at) / Fold change /veh TPSAB1 /// TPSB2 (11721975_s_at) / RFU GSTM3 (11746129_a_at) / Fold change /veh GSTM3 (11746129_a_at) / RFU IL23R (11737362_x_at) / Fold change /veh IL23R (11737362_x_at) / RFU TMEM51 (11727254_a_at) / Fold change /veh TMEM51 (11727254_a_at) / RFU PIWIL2 (11732686_x_at) / Fold change /veh PIWIL2 (11732686_x_at) / RFU ORM1 (11744905_x_at) / Fold change /veh ORM1 (11744905_x_at) / RFU CCDC152 (11743942_at) / Fold change /veh CCDC152 (11743942_at) / RFU ECM1 (11717891_a_at) / Fold change /veh ECM1 (11717891_a_at) / RFU IL23R (11748794_a_at) / Fold change /veh IL23R (11748794_a_at) / RFU TNFAIP8L3 (11732012_x_at) / Fold change /veh TNFAIP8L3 (11732012_x_at) / RFU MBOAT4 (11741988_at) / Fold change /veh MBOAT4 (11741988_at) / RFU 11764193_at / Fold change /veh 11764193_at / RFU TMEM53 (11763286_at) / Fold change /veh TMEM53 (11763286_at) / RFU MAGEB2 (11727129_at) / Fold change /veh MAGEB2 (11727129_at) / RFU TMEM200A (11744735_a_at) / Fold change /veh TMEM200A (11744735_a_at) / RFU CCDC152 (11751479_a_at) / Fold change /veh CCDC152 (11751479_a_at) / RFU FAM211A (11726209_a_at) / Fold change /veh FAM211A (11726209_a_at) / RFU RGS16 (11746705_a_at) / Fold change /veh RGS16 (11746705_a_at) / RFU VCAN (11755009_s_at) / Fold change /veh VCAN (11755009_s_at) / RFU RHOB (11743442_s_at) / Fold change /veh RHOB (11743442_s_at) / RFU RGS16 (11720943_a_at) / Fold change /veh RGS16 (11720943_a_at) / RFU RGS16 (11720944_at) / Fold change /veh RGS16 (11720944_at) / RFU, VPS4B / Fold change vs veh, VPS4B / RFU, CREB1 / Fold change vs veh, CREB1 / RFU, DNAJC13 / Fold change vs veh, DNAJC13 / RFU, GNAQ / Fold change vs veh, GNAQ / RFU, CDK5R1 / Fold change vs veh, CDK5R1 / RFU, ZRANB3 / Fold change vs veh, ZRANB3 / RFU, CUL4A / Fold change vs veh, CUL4A / RFU, CCNY / Fold change vs veh, CCNY / RFU, UFL1 / Fold change vs veh, UFL1 / RFU, COG3 / Fold change vs veh, COG3 / RFU, DIAPH2 / Fold change vs veh, DIAPH2 / RFU, SKA2 / Fold change vs veh, SKA2 / RFU, AFF3 / Fold change vs veh, AFF3 / RFU, LMF1 / Fold change vs veh, LMF1 / RFU, IPO11 / Fold change vs veh, IPO11 / RFU, DFFB / Fold change vs veh, DFFB / RFU, FOXP1 / Fold change vs veh, FOXP1 / RFU, CARD8 / Fold change vs veh, CARD8 / RFU, STRN3 / Fold change vs veh, STRN3 / RFU, ADK / Fold change vs veh, ADK / RFU, RASSF2 / Fold change vs veh, RASSF2 / RFU, WIPF1 / Fold change vs veh, WIPF1 / RFU, LARP1B / Fold change vs veh, LARP1B / RFU, RASA1 / Fold change vs veh, RASA1 / RFU, RB1 / Fold change vs veh, RB1 / RFU, PPFIA1 / Fold change vs veh, PPFIA1 / RFU, MAT2A / Fold change vs veh, MAT2A / RFU, CCT5 / Fold change vs veh, CCT5 / RFU, WDR92 / Fold change vs veh, WDR92 / RFU, CUX1 / Fold change vs veh, CUX1 / RFU, TTC7A / Fold change vs veh, TTC7A / RFU, TMEM135 / Fold change vs veh, TMEM135 / RFU, DEPTOR / Fold change vs veh, DEPTOR / RFU, CPM / Fold change vs veh, CPM / RFU, DNAJB6 / Fold change vs veh, DNAJB6 / RFU, CACNA2D3 / Fold change vs veh, CACNA2D3 / RFU, DTX4 / Fold change vs veh, DTX4 / RFU, TFCP2 / Fold change vs veh, TFCP2 / RFU, GMCL1 /// GMCL1P1 / Fold change vs veh, GMCL1 /// GMCL1P1 / RFU, AEBP2 / Fold change vs veh, AEBP2 / RFU, SNHG1 /// SNORD22 /// SNORD25 /// SNORD26 /// SNORD27 /// SNORD28 /// SNORD29 /// SNORD31 / Fold change vs veh, SNHG1 /// SNORD22 /// SNORD25 /// SNORD26 /// SNORD27 /// SNORD28 /// SNORD29 /// SNORD31 / Fold change (Aza/veh), C12orf56 (ProbeSet 11735607_a_at) / Fold change (ACY-1035/veh), C12orf56 (ProbeSet 11735607_a_at) / Fold change (Aza/veh), FGFR1OP (ProbeSet 11751329_s_at) / Fold change (ACY-1035/veh), FGFR1OP (ProbeSet 11751329_s_at) / Fold change (Aza/veh), VPS36 (ProbeSet 11739960_a_at) / Fold change (ACY-1035/veh), VPS36 (ProbeSet 11739960_a_at) / RFU SYPL1 (11715823_x_at) / Fold change /veh SYPL1 (11715823_x_at) / RFU IGFBP7 (11715501_s_at) / Fold change /veh IGFBP7 (11715501_s_at) / RFU REEP3 (11722064_at) / Fold change /veh REEP3 (11722064_at) / RFU IGLL1 (11728026_x_at) / Fold change /veh IGLL1 (11728026_x_at): dose or concentration left out as unconfirmed
Conditions: ProbeSet 11723944_a_at; LIST B

SMILES: Nc1ncn([C@@H]2O[C@H](CO)[C@@H](O)[C@H]2O)c(=O)n1 [azacitidine]
- RFU, PTTG1IP: 678.15 RFU

Reference: publication PMC5218480 (PLoS ONE, 2017)
